Measurements as given in ChEMBL document CHEMBL6071133, “Discovery of novel penetrating peptides able to target human leukemia and lymphoma for enhanced PROTAC delivery” (Eur J Med Chem, 2024).
Blank lines part the entries; values can stand above or below the molecule they belong to. Activity calls are given as the source filed them. The calls are words filed in the database; no cut-off is given here. Square brackets hold non-standard residues; d marks the D form. Peptide text beside a SMILES is read from it. Bta = N[C@@H](Cc1csc2ccccc12)C(=O)O

Columns and labels:
[1] = Drug uptake in human CCRF-CEM cells assessed as membrane penetration by measuring increase in fluorescence intensity at 5 umol/L incubated for 2 hrs by flow cytometry relative to C9C; type: ADME, cell-based; conditions: 5 µM, dose 5 µmol/L
[2] = Drug uptake in human KU812 cells assessed as membrane permeability at 5 umol/L incubated for 2 hrs by flow cytometry relative to C9C; type: ADME, cell-based; conditions: ku812, 2 h, 5 µM, dose 5 µmol/L
[3] = Drug uptake in human K562 cells assessed as membrane permeability at 5 umol/L incubated for 2 hrs by flow cytometry relative to C9C; type: ADME, cell-based; conditions: k562, 2 h, 5 µM, dose 5 µmol/L
[4] = Drug uptake in human K562 cells assessed as membrane penetration by measuring increase in fluorescence intensity at 5 umol/L incubated for 2 hrs by flow cytometry relative to C9C; type: ADME, cell-based; conditions: k562, 2 h, 5 µM, dose 5 µmol/L
[5] = Drug uptake in human KU812 cells assessed as membrane penetration by measuring increase in fluorescence intensity at 5 umol/L incubated for 2 hrs by flow cytometry relative to C9C; type: ADME, cell-based; conditions: ku812, 2 h, 5 µM, dose 5 µmol/L
K562 [6] = test: Induction of apoptosis in human K562 cells assessed as necrotic cells at PROTAC to compound concentration ratio of 1:5 incubated for 48 hrs in presence of 3 umol/L IMA-PROTAC by AnnexinV-FITC/PI staining based flow cytometry (reference value: 0.1%); type: functional
[7] = Drug uptake in human K562 cells assessed as increase in fluorescence intensity at 5 umol/L pretreated with endocytosis inhibitor, nystatin for 0.5 hrs followed by incubation with compound for 2 hrs by FACS analysis; type: ADME, cell-based; conditions: k562, 2 h, 5 µM, dose 5 µmol/L
[8] = Drug uptake in human KU812 cells assessed as membrane permeability by measuring increase in fluorescence intensity at 5 umol/L incubated for 2 hrs by flow cytometry relative to THP-1 cells; type: ADME, cell-based; conditions: ku812, 2 h, 5 µM, dose 5 µmol/L
[9] = Drug uptake in human KU812 cells assessed as increase in fluorescence intensity at 1 to 10 uM incubated for 2 hrs by flow cytometry; type: ADME, cell-based; conditions: ku812, 2 h, dose 1-10 µM
[10] = Drug uptake in human CCRF-CEM cells assessed as perinuclear distribution and colocalization with nucleus at 10 umol/L incubated for 2 hrs by confocal laser microscopy; type: ADME, cell-based; conditions: 10 µM, dose 10 µmol/L
[11] = Cytotoxicity against human CCRF-CEM cells assessed as cell viability at 0.01 to 100 uM incubated for 48 hrs by MTT assay; type: toxicity, cell-based; conditions: dose 0.01-100 µM, read-out: Activity
[12] = Drug uptake in human K562 cells assessed as increase in fluorescence intensity at 1 to 10 uM incubated for 2 hrs by flow cytometry; type: ADME, cell-based; conditions: k562, 2 h, dose 1-10 µM
[13] = Interaction with IMA-PROTAC assessed as induction of formation of micelle cluster with uniform and distinct spherical morphology by transmission electron microscopy; type: physicochemical
[14] = Drug uptake in human K562 cells assessed as perinuclear distribution and colocalization with nucleus at 10 umol/L incubated for 2 hrs by confocal laser microscopy; type: ADME, cell-based; conditions: k562, 2 h, 10 µM, dose 10 µmol/L
[15] = Cytotoxicity against human KU812 cells assessed as cell viability at 0.01 to 100 uM incubated for 48 hrs by MTT assay; type: toxicity, cell-based; conditions: dose 0.01-100 µM, read-out: Activity
K562 [16] = test: Induction of apoptosis in human K562 cells assessed as viable cells at PROTAC to compound concentration ratio of 1:5 incubated for 48 hrs in presence of 3 umol/L IMA-PROTAC by AnnexinV-FITC/PI staining based flow cytometry (reference value: 99.85%); type: functional
[17] = Interaction with IMA-PROTAC assessed as induction of assembly formation by transmission electron microscopy; type: physicochemical
[18] = Drug uptake in human KU812 cells assessed as perinuclear distribution and colocalization with nucleus at 10 umol/L incubated for 2 hrs by confocal laser microscopy; type: ADME, cell-based; conditions: ku812, 2 h, 10 µM, dose 10 µmol/L
[19] = Stability of the compound in fetal bovine serum assessed as parent compound remaining measured after 8 hrs by HPLC-MS analysis; type: ADME, cell-free, Bos taurus; conditions: cattle, read-out: Stability
K562 [20] = test: Induction of cell cycle arrest in human K562 cells assessed as accumulation of cells at G2/M phase at PROTAC to compound concentration ratio of 1:5 incubated for 48 hrs in presence of 3 umol/L IMA-PROTAC by propidium iodide staining based flow cytometry; type: functional
[21] = Drug uptake in human K562 cells assessed as increase in fluorescence intensity at 5 umol/L measured for 5 to 30 mins by flow cytometry; type: ADME, cell-based; conditions: k562, 5 µM, TDE = time-dependent effect, time 5-30 min, dose 5 µmol/L
[22] = Drug uptake in human K562 cells assessed as increase in fluorescence intensity at 1 to 10 umol/L incubated for 2 hrs by cell imaging based fluorescence microscopic analysis; type: ADME; conditions: k562, 2 h, dose 1-10 µmol/L
K562 [23] = test: Increase in membrane permeability of IMA-PROTAC in human K562 cells assessed as potentiation of IMA-PROTAC-induced inhibition of STAT5 phosphorylation at PROTAC to compound concentration ratio of 1:5 to 1:3 incubated for 48 hrs in presence of 3 umol/L IMA-PROTAC by western blot analysis; type: functional, cell-based
K562 [24] = test: Potentiation of IMA-PROTAC-induced cytotoxicity against human K562 cells assessed as inhibition of cell growth at compound: IMA-PROTAC concentration ratio of 5:1 incubated for 48 hrs in presence of 3 umo/L IMA-PROTAC by MTT assay; type: functional, cell-based
[25] = Drug uptake in human K562 cells assessed as increase in fluorescence intensity at 5 umol/L measured for 60 to 240 mins by flow cytometry; type: ADME, cell-based; conditions: k562, 5 µM, TDE = time-dependent effect, time 60-240 min, dose 5 µmol/L
[26] = Drug uptake in human KU812 cells assessed as increase in fluorescence intensity at 1 to 10 umol/L incubated for 2 hrs by cell imaging based fluorescence microscopic analysis; type: ADME; conditions: ku812, 2 h, dose 1-10 µmol/L
[27] = Increase in membrane permeation of IMA-PROTAC in human K562 cells assessed as increase in intracellular content of IMA-PROTAC incubated for 3 hrs by HPLC-MRM-MS analysis relative to control; type: functional
[28] = Drug uptake in human K562 cells assessed as fluorescence intensity at 5 umol/L pretreated with endocytosis inhibitor, chlorpromazine for 0.5 hrs followed by incubation with compound for 2 hrs by FACS analysis; type: ADME, cell-based; conditions: k562, 2 h, 5 µM, dose 5 µmol/L
K562 [29] = test: Increase in membrane permeability of IMA-PROTAC in human K562 cells assessed as potentiation of IMA-PROTAC-induced Bcr-Abl degradation at PROTAC to compound concentration ratio of 1:5 to 1:3 incubated for 48 hrs in presence of 3 umol/L IMA-PROTAC by western blot analysis; type: functional, cell-based
[30] = Drug uptake in human K562 cells assessed as membrane permeability by measuring increase in fluorescence intensity at 5 umol/L incubated for 2 hrs by flow cytometry relative to THP-1 cells; type: ADME, cell-based; conditions: k562, 2 h, 5 µM, dose 5 µmol/L
[31] = Cytotoxicity against human K562 cells assessed as cell viability at 0.01 to 100 uM incubated for 48 hrs by MTT assay; type: toxicity, cell-based; conditions: dose 0.01-100 µM, read-out: Activity
[32] = Drug uptake in human K562 cells assessed as fluorescence intensity at 5 umol/L pretreated with endocytosis inhibitor, methyl-beta-cyclodextrin for 0.5 hrs followed by incubation with compound for 2 hrs by FACS analysis; type: ADME, cell-based; conditions: k562, 2 h, 5 µM, dose 5 µmol/L
K562 [33] = test: Induction of apoptosis in human K562 cells assessed as early apoptotic cells at PROTAC to compound concentration ratio of 1:5 incubated for 48 hrs in presence of 3 umol/L IMA-PROTAC by AnnexinV-FITC/PI staining based flow cytometry (reference value: 0.03%); type: functional
[34] = Stability of the compound in fetal bovine serum assessed as parent compound remaining measured after 36 hrs by HPLC-MS analysis; type: ADME, cell-free, Bos taurus; conditions: cattle, read-out: Stability
[35] = Drug uptake in human K562 cells assessed as fluorescence intensity at 5 umol/L pretreated with endocytosis inhibitor, chloroquine for 0.5 hrs followed by incubation with compound for 2 hrs by FACS analysis; type: ADME, cell-based; conditions: k562, 2 h, 5 µM, dose 5 µmol/L
[36] = Stability of the compound in fetal bovine serum assessed as parent compound remaining measured after 12 hrs by HPLC-MS analysis; type: ADME, cell-free, Bos taurus; conditions: cattle, read-out: Stability
K562 [37] = test: Induction of apoptosis in human K562 cells assessed as late apoptotic cells at PROTAC to compound concentration ratio of 1:5 incubated for 48 hrs in presence of 3 umol/L IMA-PROTAC by AnnexinV-FITC/PI staining based flow cytometry (reference value: 0.01%); type: functional
[38] = Cytotoxicity against human THP-1 cells assessed as cell viability at higher concentrations incubated for 48 hrs by MTT assay; type: toxicity, cell-based; conditions: read-out: Activity

SMILES: CC(C)C[C@@H]1NC(=O)[C@H](Cc2c[nH]c3ccccc23)NC(=O)[C@H](Cc2ccc(O)cc2)NC(=O)[C@H](Cc2ccccc2)NC(=O)CNC(=O)[C@H](CCCCN)NC(=O)[C@H](CC(=O)O)NC(=O)[C@H](CO)NC(=O)[C@H](CCCNC(=N)N)NC1=O (cyclo(DKGFYWLRS))
fold change (FC) [1]: 3.1

SMILES: CC(C)C[C@@H]1NC(=O)[C@H](Cc2c[nH]c3ccccc23)NC(=O)[C@H](Cc2ccccc2)NC(=O)[C@H](Cc2ccccc2)NC(=O)CNC(=O)[C@H](CCCCN)NC(=O)[C@H](CCC(=O)O)NC(=O)[C@H](CO)NC(=O)[C@H](CCCNC(=N)N)NC1=O (cyclo(EKGFFWLRS))
fold change (FC) [4]: 2.8

SMILES: CC(C)C[C@@H]1NC(=O)[C@H](Cc2c[nH]c3ccccc23)NC(=O)[C@H](Cc2ccccc2)NC(=O)[C@H](Cc2ccccc2)NC(=O)[C@H](CCCNC(=N)N)NC(=O)[C@H](CCCCN)NC(=O)[C@H](CCC(=O)O)NC(=O)[C@H](CO)NC(=O)[C@H](CCCNC(=N)N)NC1=O (cyclo(EKRFFWLRS))
fold change (FC) [4]: 5.28
fold change (FC) [5]: 5.65

SMILES: CC(C)C[C@@H]1NC(=O)[C@H](Cc2c[nH]c3ccccc23)NC(=O)[C@H](Cc2ccc(O)cc2)NC(=O)[C@H](Cc2ccccc2)NC(=O)[C@H](CCCNC(=N)N)NC(=O)[C@H](CCCCN)NC(=O)[C@H](CCC(=O)O)NC(=O)[C@H](CO)NC(=O)[C@H](CCCNC(=N)N)NC1=O (cyclo(EKRFYWLRS))
Activity (K562 [6]): 0.06%
Drug uptake [7]: Active
fold change (FC) [8]: 11.7
Drug uptake [9]: Dose-Dependent Effect
Drug uptake [10]: Active
viability at 48 h, up to 100 µM [11]: > 75%
Drug uptake [12]: Dose-Dependent Effect
fold change (FC) [4]: 9.24
Activity [13]: Not Active
Drug uptake [14]: Active
viability at 48 h, up to 100 µM [15]: > 75%
Activity (K562 [16]): 87.64%
Activity [17]: Not Active
Drug uptake [18]: Active
remaining at 8 h [19]: 100%
Activity (K562 [20]): Active
Drug uptake [21]: Tde
Drug uptake [22]: Active
Activity (K562 [23]): Active
Activity (K562 [24]): inactive
Drug uptake [25]: Tde
Drug uptake [26]: Active
fold change (FC) [27]: 2.05
Drug uptake [28]: Not Active
Activity (K562 [29]): Active
fold change (FC) [30]: 33.3
viability at 48 h, up to 100 µM [31]: > 75%
fold change (FC) [5]: 7.99
Drug uptake [32]: Not Active
Activity (K562 [33]): 10.71%
remaining at 36 h [34]: 75%
Drug uptake [35]: Not Active
remaining at 12 h [36]: 80%
Activity (K562 [37]): 1.58%
viability at 48 h [38]: > 75%

The remaining lines, values ahead:

fold change (FC) [1]: 4.78
SMILES: CC(C)C[C@H](NC(=O)[C@H](Cc1csc2ccccc12)NC(=O)[C@H](Cc1ccc(O)cc1)NC(=O)[C@H](Cc1ccccc1)NC(=O)CNC(=O)[C@@H](N)CS)C(=O)N[C@@H](CCCNC(=N)N)C(=O)N[C@@H](CO)C(=O)N[C@@H](CS)C(=O)O (H-CGFY[Bta]LRSC-OH)

Drug uptake [2]: 65%
Drug uptake [3]: 65%
SMILES: CC(C)C[C@H](NC(=O)[C@H](Cc1csc2ccccc12)NC(=O)[C@H](Cc1ccc(O)cc1)NC(=O)[C@H](Cc1ccccc1)NC(=O)[C@H](CCCNC(=N)N)NC(=O)[C@@H](N)CS)C(=O)N[C@@H](CCCNC(=N)N)C(=O)N[C@@H](CO)C(=O)N[C@@H](CS)C(=O)O (H-CRFY[Bta]LRSC-OH)

fold change (FC) [4]: 5.04
fold change (FC) [5]: 2.69
SMILES: CC(C)C[C@@H]1NC(=O)[C@H](Cc2csc3ccccc23)NC(=O)[C@H](Cc2ccc(O)cc2)NC(=O)[C@H](Cc2ccccc2)NC(=O)[C@H](CCCNC(=N)N)NC(=O)[C@H](CCCCN)NC(=O)[C@H](CCC(=O)O)NC(=O)[C@H](CO)NC(=O)[C@H](CCCNC(=N)N)NC1=O (cyclo([Bta]LRSEKRFY))
